Measurements reported in US8975398B2, “NAMPT inhibitors” (AbbVie Inc., priority 2012, dated 2015).

Columns and labels:
[1] = molecular target: NAMPT (human, recombinant, C-terminally His-tagged) (Homo sapiens, UniProt P43490); assay: Time-Resolved Fluorescence Resonance Energy Transfer (TR-FRET) Binding Assay of NAMPT; conditions: 6.8 nM NAMPT, 200 nM probe, equilibrated 3 hours, absence of substrates
Protocol: Determination of the utility of compounds having Formula (I) as binders to and inhibitors of NAMPT was performed using Time-Resolved Fluorescence Resonance Energy Transfer (TR-FRET) binding assays.
Time-Resolved Fluorescence Resonance Energy Transfer (TR-FRET) Binding Assay of NAMPT
Test compounds were serially diluted (typically 11 half log dilutions) in neat DMSO to 50× final concentrations prior to dilution with assay buffer (50 mM HEPES (NaOH), pH 7.5, 100 mM NaCl, 10 mM MgCl2, 1 mM DTT, 1% Glycerol) to 3× and 6% DMSO. Six μL were transferred to 384-well low-volume plates (Owens Corning #3673). To this, 12 μL of a 1.5× solution containing enzyme, probe and antibody were added. Final concentrations in the 18 μL, reactions were 1× assay buffer, 2% DMSO, 6.8 nM NAMPT (human, recombinant, C-terminally His-tagged), 200 nM probe (a potent nicotinamide-competitive inhibitor conjugated to Oregon Green 488) and 1 nM Tb-anti-His antibody (Invitrogen #PV5895). Reactions were equilibrated at room temperature for 3 hours prior to reading on an Envision multi-label plate reader (Perkin Elmer; Ex=337 nm, Em=520 and 495 nm). Time-resolved FRET ratios (Em520/Em495) were normalized to controls, plotted as a function of compound concentration and fit with the four-parameter logistic equation to determine IC50s.

NAMPT = NAMPT (Homo sapiens, UniProt P43490); assay: Time-Resolved Fluorescence Resonance Energy Transfer (TR-FRET) Binding Assay of NAMPT with PRPP; conditions: 2 nM NAMPT, 2 nM probe, 200 uM PRPP and 2.5 mM ATP, equilibrated 16 hours
Sequence of NAMPT (P43490 whole entry): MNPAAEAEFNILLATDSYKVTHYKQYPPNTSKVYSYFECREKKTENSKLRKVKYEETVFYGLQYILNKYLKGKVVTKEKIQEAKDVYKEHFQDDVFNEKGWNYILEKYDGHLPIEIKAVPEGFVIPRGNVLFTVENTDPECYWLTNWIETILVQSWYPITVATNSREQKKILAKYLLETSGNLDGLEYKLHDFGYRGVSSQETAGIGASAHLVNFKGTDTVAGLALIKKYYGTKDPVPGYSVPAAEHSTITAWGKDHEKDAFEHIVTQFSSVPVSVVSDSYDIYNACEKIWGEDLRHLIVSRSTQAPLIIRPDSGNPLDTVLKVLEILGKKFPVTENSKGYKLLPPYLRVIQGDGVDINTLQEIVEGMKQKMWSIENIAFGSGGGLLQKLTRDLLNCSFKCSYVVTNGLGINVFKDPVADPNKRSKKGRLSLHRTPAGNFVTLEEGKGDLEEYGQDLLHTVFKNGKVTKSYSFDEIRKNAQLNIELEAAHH
Protocol: Time-Resolved Fluorescence Resonance Energy Transfer (TR-FRET) Binding Assay of NAMPT with PRPP
Compound handling and data processing were identical to the assay in the absence of substrates (above). Final concentrations were 1× assay buffer, 2% DMSO, 2 nM NAMPT, 2 nM probe, 1 nM Tb-anti-His antibody (Invitrogen #PV5895), 200 uM PRPP and 2.5 mM ATP. Reactions were equilibrated for 16 hours prior to measurement to allow for potential enzymatic modification of test compounds.

Sequence of NAMPT (human, recombinant, C-terminally His-tagged) (P43490 whole entry): as above

SMILES | IC50 [1] | IC50 (NAMPT)
Cc1ncccc1N1CC(C(=O)Nc2ccc(C3CCN(C(=O)CN4CCCC4)CC3)cc2)C1 [Example 166, 1-(2-methylpyridin-3-yl)-N-{4-[1-(pyrrolidin-1-ylacetyl)piperidin-4-yl]phenyl}azetidine-3-carboxamide] | 2270 nM | 206 nM
O=C(Nc1ccc(OC2CCN(C(=O)c3ccc(Cl)cc3)CC2)cc1)C1CN(c2ccnnc2)C1 [Example 297, N-(4-{[1-(4-chlorobenzoyl)piperidin-4-yl]oxy}phenyl)-1-(pyridazin-4-yl)azetidine-3-carboxamide] | 104 nM | 47 nM
O=C(Nc1ccc(OC2CCN(C(=O)Cc3ccc(C(F)(F)F)cc3)CC2)cc1)C1CN(c2ccnnc2)C1 [Example 273, 1-(pyridazin-4-yl)-N-{4-[(1-{[4-(trifluoromethyl)phenyl]acetyl}piperidin-4-yl)oxy]phenyl}azetidine-3-carboxamide] | 128 nM | 42.1 nM
O=C(Nc1ccc(OC2CCN(C(=O)Cc3ccccc3F)CC2)cc1)C1CN(c2ccnnc2)C1 [Example 308, N-[4-({1-[(2-fluorophenyl)acetyl]piperidin-4-yl}oxy)phenyl]-1-(pyridazin-4-yl)azetidine-3-carboxamide] | 36.9 nM | 18.4 nM
CC1(C(=O)N2CCC(Oc3ccc(NC(=O)C4CN(c5cccnc5)C4)cc3)CC2)CCCCC1 [Example 53, N-[4-({1-[(1-methylcyclohexyl)carbonyl]piperidin-4-yl}oxy)phenyl]-1-(pyridin-3-yl)azetidine-3-carboxamide] | 25.6 nM | 0.689 nM
Cc1ccsc1C(=O)N1CCC(c2ccc(NC(=O)C3CN(c4cccnc4)C3)cc2)CC1 [Example 111, N-(4-{1-[(3-methylthiophen-2-yl)carbonyl]piperidin-4-yl}phenyl)-1-(pyridin-3-yl)azetidine-3-carboxamide] | 2.84 nM | 0.199 nM
O=C(Nc1ccc(OC2CCN(C(=O)c3ccco3)CC2)cc1)C1CN(c2cccnc2)C1 [Example 63, N-(4-{[1-(furan-2-ylcarbonyl)piperidin-4-yl]oxy}phenyl)-1-(pyridin-3-yl)azetidine-3-carboxamide] | 52.7 nM | 0.514 nM
CCOCC(=O)N1CCC(c2ccc(NC(=O)C3CN(c4cccnc4)C3)cc2)CC1 [Example 131, N-{4-[1-(ethoxyacetyl)piperidin-4-yl]phenyl}-1-(pyridin-3-yl)azetidine-3-carboxamide] | 69.9 nM | 0.474 nM
Cc1ncccc1N1CC(C(=O)Nc2ccc(C3CCN(C(=O)C(C)C)CC3)cc2)C1 [Example 29, N-{4-[1-(2-methylpropanoyl)piperidin-4-yl]phenyl}-1-(2-methylpyridin-3-yl)azetidine-3-carboxamide] | 79.8 nM | 16.7 nM
Cc1ccc(C(=O)N2CCC(Oc3ccc(NC(=O)C4CN(c5cccnn5)C4)cc3)CC2)s1 [Example 219, N-[4-({1-[(5-methylthiophen-2-yl)carbonyl]piperidin-4-yl}oxy)phenyl]-1-(pyridazin-3-yl)azetidine-3-carboxamide] | 105 nM | 0.48 nM
O=C(Nc1ccc(OC2CCN(C(=O)CC3CCOCC3)CC2)cc1)C1CN(c2cnccc2C(F)(F)F)C1 [Example 7, N-(4-{[1-(tetrahydro-2H-pyran-4-ylacetyl)piperidin-4-yl]oxy}phenyl)-1-[4-(trifluoromethyl)pyridin-3-yl]azetidine-3-carboxamide] | 104 nM | 84.7 nM
CCC(C)(C)C(=O)N1CCC(Oc2ccc(NC(=O)C3CN(c4cccnn4)C3)cc2)CC1 [Example 248, N-(4-{[1-(2,2-dimethylbutanoyl)piperidin-4-yl]oxy}phenyl)-1-(pyridazin-3-yl)azetidine-3-carboxamide] | 82.6 nM | 0.817 nM
O=C(Nc1ccc(OC2CCN(C(=O)c3cccs3)CC2)cc1)C1CN(c2ccnnc2)C1 [Example 303, 1-(pyridazin-4-yl)-N-(4-{[1-(thiophen-2-ylcarbonyl)piperidin-4-yl]oxy}phenyl)azetidine-3-carboxamide] | 30.9 nM | 15.5 nM
O=C(Nc1ccc(C2CCN(C(=O)CCN3CCOCC3)CC2)cc1)C1CN(c2cccnc2)C1 [Example 124, N-(4-{1-[3-(morpholin-4-yl)propanoyl]piperidin-4-yl}phenyl)-1-(pyridin-3-yl)azetidine-3-carboxamide] | 123 nM | 0.278 nM
COc1ccc(C(=O)N2CCC(c3ccc(NC(=O)C4CN(c5cccnn5)C4)cc3)CC2)cc1 [Example 347, N-{4-[1-(4-methoxybenzoyl)piperidin-4-yl]phenyl}-1-(pyridazin-3-yl)azetidine-3-carboxamide] | 66.2 nM | 0.94 nM
N#Cc1cccc(C(=O)N2CCC(c3ccc(NC(=O)C4CN(c5cccnn5)C4)cc3)CC2)c1 [Example 352, N-{4-[1-(3-cyanobenzoyl)piperidin-4-yl]phenyl}-1-(pyridazin-3-yl)azetidine-3-carboxamide] | 95.8 nM | 0.615 nM
CC(C)C(=O)N1CCC(c2ccc(NC(=O)[C@H]3CCN(c4cccnn4)C3)cc2)CC1 [Example 310, (3S)—N-{4-[1-(2-methylpropanoyl)piperidin-4-yl]phenyl}-1-(pyridazin-3-yl)pyrrolidine-3-carboxamide] | 456 nM | 5.37 nM
CC(C)C(C)C(=O)N1CCC(c2ccc(NC(=O)C3CN(c4cccnc4)C3)cc2)CC1 (centres unmarked) [Example 139, N-{4-[1-(2,3-dimethylbutanoyl)piperidin-4-yl]phenyl}-1-(pyridin-3-yl)azetidine-3-carboxamide] | 12 nM | 0.473 nM
O=C(Nc1ccc(OC2CCN(C(=O)CC3C[C@@H]4CC[C@H]3C4)CC2)cc1)C1CN(c2cccnc2)C1 (stereo partly drawn) [Example 36, N-[4-({1-[(1S,4R)-bicyclo[2.2.1]hept-2-ylacetyl]piperidin-4-yl}oxy)phenyl]-1-(pyridin-3-yl)azetidine-3-carboxamide] | 40.1 nM | 0.882 nM
CCOCCC(=O)N1CCC(c2ccc(NC(=O)C3CN(c4cccnn4)C3)cc2)CC1 [Example 380, N-{4-[1-(3-ethoxypropanoyl)piperidin-4-yl]phenyl}-1-(pyridazin-3-yl)azetidine-3-carboxamide] | 109 nM | 0.883 nM
COc1ncccc1N1CC(C(=O)Nc2ccc(C3CCN(C(=O)C(C)(C)O)CC3)cc2)C1 [Example 73, N-{4-[1-(2-hydroxy-2-methylpropanoyl)piperidin-4-yl]phenyl}-1-(2-methoxypyridin-3-yl)azetidine-3-carboxamide] | 224 nM | 71.1 nM
CC(C)(C)OC(=O)N1CCC(c2ccc(C(=O)NC3CN(c4cccnn4)C3)cc2)CC1 [Example 314, tert-butyl 4-(4-{[1-(pyridazin-3-yl)azetidin-3-yl]carbamoyl}phenyl)piperidine-1-carboxylate] | 3860 nM | 0.572 nM
O=C(Nc1ccc(OC2CCN(C(=O)c3ccccn3)CC2)cc1)C1CN(c2ccnnc2)C1 [Example 296, 1-(pyridazin-4-yl)-N-(4-{[1-(pyridin-2-ylcarbonyl)piperidin-4-yl]oxy}phenyl)azetidine-3-carboxamide] | 149 nM | 57.1 nM
O=C(Nc1ccc(OC2CCN(C(=O)CC(F)(F)F)CC2)cc1)[C@H]1CCN(c2cccnc2)C1 [Example 18, (3S)-1-(pyridin-3-yl)-N-(4-{[1-(3,3,3-trifluoropropanoyl)piperidin-4-yl]oxy}phenyl)pyrrolidine-3-carboxamide] | 2740 nM | 5.32 nM
O=C(Nc1ccc(OC2CCN(C(=O)C3CCOCC3)CC2)cc1)C1CN(c2ccnnc2)C1 [Example 306, 1-(pyridazin-4-yl)-N-(4-{[1-(tetrahydro-2H-pyran-4-ylcarbonyl)piperidin-4-yl]oxy}phenyl)azetidine-3-carboxamide] | 112 nM | 46.3 nM
CC(C)(O)C(=O)N1CCC(Oc2ccc(C(=O)NC3CN(c4cccnc4)C3)cc2)CC1 [Example 24, 4-{[1-(2-hydroxy-2-methylpropanoyl)piperidin-4-yl]oxy}-N-[1-(pyridin-3-yl)azetidin-3-yl]benzamide] | 5880 nM | 0.861 nM
O=C(Nc1ccc(OC2CCN(C(=O)Cc3ccc(F)cc3)CC2)cc1)C1CN(c2ccnnc2)C1 [Example 276, N-[4-({1-[(4-fluorophenyl)acetyl]piperidin-4-yl}oxy)phenyl]-1-(pyridazin-4-yl)azetidine-3-carboxamide] | 134 nM | 34.9 nM
COCC(=O)N1CCC(Oc2ccc(NC(=O)C3CN(c4ccnnc4)C3)cc2)CC1 [Example 267, N-(4-{[1-(methoxyacetyl)piperidin-4-yl]oxy}phenyl)-1-(pyridazin-4-yl)azetidine-3-carboxamide] | 274 nM | 56.5 nM
